Legend:
chymotrypsin = chymotrypsin (Bos taurus, UniProt P00766); settings: literature; cited from earlier work
normal rabbit plasma = assay: Thrombin times (TT), blood coagulation in vitro; format: biochemical; settings: thrombin 4 μ/ml
Experimental: A mixture of 0.2 ml of normal rabbit plasma and 0.05 ml of buffer containing the inhibitor at 6 times the desired final concentration was warmed to 37° C. Clotting was initiated by addition of thrombin (0.05 ml at 6 times the final concentration). The thrombin used was purchased from Sigma Chemical Company (No. T-6634, activity 1190 NIH units per mg protein) and prepared in buffer. The buffer employed for both the inhibitor and the thrombin was 0.1 M Tris buffer (12.10 g/L), containing 0.154 M NaCl (8.84 g/L) and 2.5 mg/ml bovine serum albumin, pH 7.4. The clotting times, measured in seconds, were determined using a fibrometer. The effects of the inhibitor on blood clotting times compared with the blood clotting times of controls run in the absence of inhibitors, are shown in Table 6. Values represent the average of at least three determinations.

Sprague Dawley CD Rats = assay: Inhibition of Blood Coagulation Following In Vivo Oral Dosing (thrombin times of plasma)
Experimental: Male rats (Sprague Dawley CD Rats, 130-140 g, supplied by Charles River Labs, Inc., Wilmington, MA) were anesthetized with sodium pentobarbital (50 mg/kg, i.p.). A midline incision was made on the ventral surface of the neck, and a polyethylene catheter was inserted in one of the carotid arteries and exteriorized at the back of the neck. After recovery from anesthesia, control blood samples were taken from the carotid artery catheter, anticoagulated with sodium citrate, and centrifuged (2000×g, 10 minutes). Plasma was transferred to plastic tubes and kept on ice until it was assayed. Thrombin times were measured using a fibrometer, as described in Examples 125-127.
The vehicle employed was 5% dimethylsulfoxide in saline. Blood samples were taken at various times after oral dosing and assayed as described above. When clotting time exceeded 300 seconds, it is reported below as >300.

rats = assay: Survival after thrombin infusion following oral dosing; format: in vivo; settings: 5 mg/kg orally in water; 500 units/kg thrombin infused thirty to sixty minutes later; water controls: all fourteen died
Text: Thirty to sixty minutes later, all rats received an infusion of 500 units/kg thrombin over a period of one minute. All fourteen rats given only water died within ten minutes of the thrombin infusion. In contrast only 8 out of 17 rats treated with the inhibitor-containing water died within ten minutes, and the remainder survived one hour, at which time they were euthanized.

Male Lewis rats = assay: In Vivo Inhibition of Blood Coagulation Following Oral, Colonic and Rectal Administration; settings: mean for 3 rats
Experimental: Male Lewis rats weighing between 300-350 g were anesthetized with sodium pentobarbitol (50 mg/kg, i.p.) and the jugular vein was cannulated using a silastic tubing attached to a polyethylene 50 tubing. The tubing was exteriorized at the back of the neck and attached to a syringe through a stop cock. […] The blood samples were then transferred into vacutainers containing citrate buffer. Also, after each collection the cannula was flushed with saline. The blood samples were then centrifuged immediately (2500 rpm for 15 min) and 0.2 ml of the plasma samples were used for clotting time measurements. The clotting time measurements were carried out using a fibrometer as follows. First, plasma (0.2 ml) was placed in a fibro cup, and pH 7.4 Tris buffer (50 microliters) was added. The plasma buffer solution was incubated at 37° C. for 1 min, 50 microters of a 24 μ/ml thrombin solution in Tris buffer was then added, and clotting time in seconds was measured. When clotting time exceeded 300 seconds, it is reported below as >300.
The jugular vein-cannulated rats were allowed to recover from anesthesia before they were dosed orally. The protease inhibitor Ac-(D)Phe-Pro-boroArg--OH aqueous solution, consisting of 3 mg of inhibitor per kg weight of rat (approximately 1 mg/rat) in a volume of 0.75 ml of water per kg of rat, was administered by gavage.
A 3 cm incision was made in the abdomen of the jugular vein-cannulated rats while they were still under anesthesia. The colon was located and was tied off at both the beginning and the end. The protease inhibitor Ac-(D)Phe-Pro-boroArg--OH aqueous solution, consisting of 3 mg of inhibitor per kg weight of rat (approximately 1 mg/rat) in a volume of 1 ml of water per kg weight of rat, was injected at the beginning into the colon cavity. The incision was closed using wound clips.
The procedure for rectal administration in the jugular vein-cannulated rats was as described by Kamiya et al., J. Pharm. Sci., 71: 621 (1982). In brief, a device was made consisting of a 0.89 cm and a 0.71 cm silicon rubber septa connected by a 2 cm length of wire. This device was inserted into the rectum of the rat, the large septum first, and glued to the annus using suitable glue. Dosing was accomplished by injection through the exposed septum. The rectal dose was 3 mg of the protease inhibitor Ac-(D)Phe-Pro-boroArg--OH per kg weight of rat (approximately 1 mg/rat) in a volume of 0.6 ml of water per kg of rat.

## CC(=O)N[C@@H](Cc1ccccc1)B(O)O [(R)-1-acetamido-2-phenylethane boronic acid]
chymotrypsin
  Ki: 4 µM

## CC(=O)N[C@H](Cc1ccccc1)C(=O)N1CCC[C@H]1C(=O)N[C@@H](CCCN=C(N)N)B(O)O.Cl [Ac-(D)Phe-Pro-boroArg-OH, Ac-(D)Phe-Pro-boroArg-OH.HCl]
Normal rabbit plasma; inhibitor 50 nM, mean ± standard deviation
  Thrombin Times: 32.7 ± 0.8 s
Normal rabbit plasma; inhibitor 100 nM, mean ± standard deviation
  Thrombin Times: 62.4 ± 7.2 s
Normal rabbit plasma; inhibitor 150 nM, terminated at 300 seconds
  Thrombin Times: > 300 s
Sprague Dawley CD Rats; oral gavage 1 mg, 1 hr
  clotting times (thrombin times): > 300 s
Sprague Dawley CD Rats; oral gavage 1 mg, 2 hr
  clotting times (thrombin times): > 300 s
Sprague Dawley CD Rats; oral gavage 1 mg, 3 hr
  clotting times (thrombin times): > 300 s
Sprague Dawley CD Rats; oral gavage 1 mg, 4 hr, mean ± standard deviation
  clotting times (thrombin times): 47 ± 4 s
Sprague Dawley CD Rats; oral gavage 1 mg, 6 hr, mean ± standard deviation
  clotting times (thrombin times): 46 ± 3 s
Sprague Dawley CD Rats; oral gavage 1 mg, .5 hr
  clotting times (thrombin times): > 300 s
Sprague Dawley CD Rats; oral gavage 2 mg, 4 hr, mean ± standard deviation
  clotting times (thrombin times): 54 ± 29 s
Sprague Dawley CD Rats; oral gavage 2 mg, 6 hr, mean ± standard deviation
  clotting times (thrombin times): 44 ± 4 s
Sprague Dawley CD Rats; oral gavage 2 mg, .5 hr
  clotting times (thrombin times): > 300 s
Sprague Dawley CD Rats; oral gavage 10 mg, 1 hr
  clotting times (thrombin times): > 300 s
Sprague Dawley CD Rats; oral gavage 10 mg, 2 hr
  clotting times (thrombin times): > 300 s
Sprague Dawley CD Rats; oral gavage 10 mg, 3 hr
  clotting times (thrombin times): > 300 s
Sprague Dawley CD Rats; oral gavage 10 mg, .5 hr
  clotting times (thrombin times): > 300 s
rats
  rats died within ten minutes of the thrombin infusion: 8 out of 17
Male Lewis rats; colonic 3 mg/kg, 0.0 hr
  Clotting Time: 59.4 s
Male Lewis rats; colonic 3 mg/kg, 0.5 hr
  Clotting Time: > 300 s
Male Lewis rats; colonic 3 mg/kg, 1.0 hr
  Clotting Time: > 300 s
Male Lewis rats; colonic 3 mg/kg, 2.0 hr
  Clotting Time: > 300 s
Male Lewis rats; colonic 3 mg/kg, 4.0 hr
  Clotting Time: > 300 s
Male Lewis rats; colonic 3 mg/kg, 5.0 hr
  Clotting Time: > 300 s
Male Lewis rats; oral 3 mg/kg, 0.00 hr
  Clotting Time: 57.3 s
Male Lewis rats; oral 3 mg/kg, 0.25 hr
  Clotting Time: > 300 s
Male Lewis rats; oral 3 mg/kg, 0.50 hr
  Clotting Time: > 300 s
Male Lewis rats; oral 3 mg/kg, 1.00 hr
  Clotting Time: > 300 s
Male Lewis rats; oral 3 mg/kg, 2.00 hr
  Clotting Time: > 300 s
Male Lewis rats; oral 3 mg/kg, 3.00 hr
  Clotting Time: > 300 s
Male Lewis rats; oral 3 mg/kg, 4.00 hr
  Clotting Time: > 300 s
Male Lewis rats; rectal 3 mg/kg, 0 hr
  Clotting Time: 66.4 s
Male Lewis rats; rectal 3 mg/kg, 0.25 hr
  Clotting Time: > 300 s
Male Lewis rats; rectal 3 mg/kg, 0.5 hr
  Clotting Time: > 300 s
Male Lewis rats; rectal 3 mg/kg, 1.0 hr
  Clotting Time: > 300 s
Male Lewis rats; rectal 3 mg/kg, 2.0 hr
  Clotting Time: > 300 s
Male Lewis rats; rectal 3 mg/kg, 4.0 hr
  Clotting Time: > 300 s
